In brackets after ≈: the same amount, converted by molar mass. Activity calls are given as the source filed them. The rule behind the calls is not given here.
Assays:
[1] = Antitumor activity against human PXF 1752L by modified propidium iodide assay; type: functional
[2] = tested on: Penicillium chrysogenum; assay: Antimicrobial activity against Penicillium notatum JP36 at 50 ug after 24 hrs by paper disk method; type: functional, organism-based
[3] = tested on: Mycolicibacterium vaccae; assay: Antimicrobial activity against Mycobacterium vaccae IMET 10670 at 50 ug after 24 hrs by paper disk method; type: functional; settings: IMET 10670, 24 h, read-out: IZ
[4] = tested on: K562; assay: Antiproliferative activity against human K562 cells; type: functional
[5] = Antitumor activity against human MEXF 462NL by modified propidium iodide assay; type: functional
[6] = Antitumor activity against human LXFL 529L by modified propidium iodide assay; type: functional
[7] = tested on: Enterococcus faecalis; assay: Antimicrobial activity against Enterococcus faecalis 1528 R10 at 50 ug after 24 hrs by paper disk method; type: functional; settings: 1528 R10, 24 h, read-out: IZ
[8] = tested on: Pseudomonas aeruginosa; assay: Antimicrobial activity against Pseudomonas aeruginosa K799/61 at 50 ug after 24 hrs by paper disk method; type: functional; settings: K799/61, 24 h, read-out: IZ
[9] = tested on: Staphylococcus aureus; assay: Antimicrobial activity against Staphylococcus aureus SG 511 at 50 ug after 24 hrs by paper disk method; type: functional; settings: SG 511, 24 h, read-out: IZ
[10] = Antitumor activity against human LXFA 629L by modified propidium iodide assay; type: functional
[11] = tested on: Pseudomonas aeruginosa; assay: Antimicrobial activity against Pseudomonas aeruginosa SG137/B7 at 50 ug after 24 hrs by paper disk method; type: functional, organism-based
[12] = tested on: CWR22R; assay: Antitumor activity against human 22Rv1 by modified propidium iodide assay; type: functional, cell-based
[13] = tested on: HT-29; assay: Antitumor activity against human HT-29 by modified propidium iodide assay; type: functional, cell-based
[14] = tested on: Human immunodeficiency virus 1; assay: Inhibition of HIV1 NL4-3 replication in CD4-CXCR4 expressing human TZM-bl cells assessed as decrease in p24 antigen production; type: functional, organism-based
[15] = tested on: Escherichia coli; assay: Antimicrobial activity against Escherichia coli SG458 at 50 ug after 24 hrs by paper disk method; type: functional, organism-based
[16] = tested on: Staphylococcus aureus; assay: Antimicrobial activity against Staphylococcus aureus 134/94 R9 at 50 ug after 24 hrs by paper disk method; type: functional; settings: 134/94 R9, 24 h, read-out: IZ
[17] = tested on: L929; assay: Antiproliferative activity against mouse L929 cells; type: functional
[18] = tested on: Candida albicans; assay: Antimicrobial activity against Candida albicans at 50 ug after 24 hrs by paper disk method; type: functional, organism-based
[19] = Antitumor activity against human RXF 486L by modified propidium iodide assay; type: functional
[20] = tested on: HeLa; assay: Antiproliferative activity against human HeLa cells; type: functional
[21] = Antitumor activity against human MAXF 401NL by modified propidium iodide assay; type: functional
[22] = tested on: Sporobolomyces salmonicolor; assay: Antimicrobial activity against Sporobolomyces salmonicolor SBUG 549 at 50 ug after 24 hrs by paper disk method; type: functional, organism-based
[23] = tested on: Bacillus subtilis; assay: Antimicrobial activity against Bacillus subtilis ATCC 6633 at 50 ug after 24 hrs by paper disk method; type: functional; settings: ATCC 6633, 24 h, read-out: IZ
[24] = Antitumor activity against human OVXF 899L by modified propidium iodide assay; type: functional
[25] = Antitumor activity against human GXF251L by modified propidium iodide assay; type: functional
[26] = tested on: Human immunodeficiency virus 1; assay: Inhibition of HIV1 NL4-3 replication in CD4-CCR5 expressing human TZM-bl cells assessed as decrease in p24 antigen production; type: functional, organism-based
[27] = Antitumor activity against human PAXF 1657L by modified propidium iodide assay; type: functional
[28] = Antitumor activity against human UXF 1138L by modified propidium iodide assay; type: functional

C[C@@]1(C(=O)O)[C@@H](O)CC[C@]2(C)c3cc4c(cc3CC[C@@H]12)[nH]c1ccccc14 [XIAMYCIN]
IC50 [1]: > 30 µM
Activity [2]: Active
zone of inhibition at 50 µg/disc [3]: 14 mm
GI50 [4]: 36.7 µg/mL (≈ 101 µM)
IC50 [5]: > 30 µM
IC50 [6]: > 30 µM
zone of inhibition at 50 µg/disc [7]: 12 mm
zone of inhibition at 50 µg/disc [8]: 15 mm
zone of inhibition at 50 µg/disc [9]: 15 mm
IC50 [10]: > 30 µM
Activity [11]: inactive
IC50 [12]: > 30 µM
IC50 [13]: > 30 µM
inhibition [14]: Active
Activity [15]: inactive
zone of inhibition at 50 µg/disc [16]: 14 mm
GI50 [17]: 49.8 µg/mL (≈ 137 µM)
Activity [18]: inactive
IC50 [19]: > 30 µM
CC50 [20]: 44.3 µg/mL (≈ 122 µM)
IC50 [21]: > 30 µM
Activity [22]: inactive
zone of inhibition at 50 µg/disc [23]: 13.5 mm
IC50 [24]: > 30 µM
IC50 [25]: 30 µM
inhibition [26]: Active
IC50 [27]: > 30 µM
IC50 [28]: > 30 µM

COC(=O)[C@]1(C)[C@@H](O)CC[C@]2(C)c3cc4c(cc3CC[C@@H]12)[nH]c1ccccc14
IC50 [1]: 12.8 µM
Activity [2]: Active
zone of inhibition at 50 µg/disc [3]: 14 mm
IC50 [5]: 9.62 µM
IC50 [6]: 10 µM
zone of inhibition at 50 µg/disc [7]: 12 mm
zone of inhibition at 50 µg/disc [8]: 15 mm
zone of inhibition at 50 µg/disc [9]: 15 mm
IC50 [10]: 8.52 µM
Activity [11]: inactive
IC50 [12]: 9.87 µM
IC50 [13]: 9.97 µM
Activity [15]: inactive
zone of inhibition at 50 µg/disc [16]: 14 mm
Activity [18]: inactive
IC50 [19]: 11.1 µM
IC50 [21]: 10.8 µM
Activity [22]: inactive
zone of inhibition at 50 µg/disc [23]: 13.5 mm
IC50 [24]: 11.7 µM
IC50 [25]: 7.63 µM
IC50 [27]: 12.4 µM
IC50 [28]: 8.54 µM

Reference: ChEMBL document CHEMBL1268922, “Xiamycin, a pentacyclic indolosesquiterpene with selective anti-HIV activity from a bacterial mangrove endophyte” (Bioorg Med Chem Lett, 2010)
